# Laboratory results published in patent publication US5422373A, “Anti-atherosclerotic aryl compounds” (Burroughs Wellcome Co., priority 1990, dated 1995).
# How the values were obtained:
# ACAT = target: T1, ACAT (Rattus norvegicus, UniProt Q7TQM4); assay: In vitro assay for the inhibition of ACAT activity; assay type: biochemical; details: hepatic microsomes of cholesterol/cholic acid fed male CD rats; [14C]oleoyl-CoA 25 μM
# T1 construct: using hepatic microsomes as the source of both ACAT and cholesterol; from tissue; host or cells: liver microsomes of male CD rats fed a 0.8% cholesterol/0.2% cholic acid diet
# T1 sequence (Q7TQM4 1-524): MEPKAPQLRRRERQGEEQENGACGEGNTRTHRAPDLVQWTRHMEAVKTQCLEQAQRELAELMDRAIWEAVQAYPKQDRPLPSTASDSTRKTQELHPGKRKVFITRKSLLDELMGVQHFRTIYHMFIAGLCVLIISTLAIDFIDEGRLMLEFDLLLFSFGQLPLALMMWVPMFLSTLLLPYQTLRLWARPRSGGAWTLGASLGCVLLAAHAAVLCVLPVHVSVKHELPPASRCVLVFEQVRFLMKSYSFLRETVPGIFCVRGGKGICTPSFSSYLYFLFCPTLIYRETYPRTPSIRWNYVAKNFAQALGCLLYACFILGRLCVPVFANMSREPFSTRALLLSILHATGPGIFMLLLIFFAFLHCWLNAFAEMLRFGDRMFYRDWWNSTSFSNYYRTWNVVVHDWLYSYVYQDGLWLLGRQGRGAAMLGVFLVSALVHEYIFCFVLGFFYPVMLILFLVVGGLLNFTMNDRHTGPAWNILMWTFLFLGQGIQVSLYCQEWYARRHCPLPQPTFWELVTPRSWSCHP
# Protocol: (i) In vitro assay for the inhibition of ACAT activity
# ACAT activity was determined as described by Ross et al by the incorporation of [^14 C]oleoyl-CoA into cholesterol [^14 C]oleate using hepatic microsomes as the source of both ACAT and cholesterol. Microsomes were prepared from the livers of male CD rats fed a 0.8% cholesterol/0.2% cholic acid diet 3.5 days before sacrifice. Various concentrations of a test compound were preincubated with a 0.5mg/ml microsomal suspension and after 15 minutes a 50 μg aliquot was removed and incubated with 25 μM of [^14 C]-enriched oleoyl-CoA for 4 minutes. The reaction was terminated by the addition of 1 ml of ethanol and 4ml of hexane. After shaking, the hexane layer was removed and evaporated to dryness. The hexane extract was then reconstituted in 150 μl of HPLC solvent and injected on to a B&J OD5 Reverse Phase C18 column using an isocratic mobile phase of acetonitrile: isopropanol:heptane (50:40:10) in 0.5% acetic acid at a flow rate of 1.0 ml/min. The product of the reaction, [14C]oleoyl cholesterol, was measured using a Flow One radiometric detector.
# The ACAT IC50 value for each compound was determined from a plot of % inhibition from control vs inhibitor concentration.
# [1] = test system: cholesterol-cholic acid fed rats; assay: Determination of hypolipidaemic activity in cholesterol-cholic acid fed rats; assay type: in vivo, rat; details: male Sprague-Dawley rats on 0.4% cholesterol, 0.2% cholic acid diet, serum on fourth day
# Description: (ii) Determination of hypolipidaemic activity in cholesterol-cholic acid fed rats
# Male Sprague-Dawley rats (CD, Charles River) each weighing 200-300 g were used. Hypercholesterolemia was induced in the rats by administration of a diet enriched to 0.4% cholesterol, 0.2% cholic acid. Prior to the administration of the diet, blood samples were collected under halothane anesthesia by cardiac puncture to determine baseline lipid levels. The blood was allowed to clot and serum was obtained for the analysis of total cholesterol, dextran-precipitable lipoproteins cholesterol (VLDL +LDL) and total triglycerides. The rats were divided into groups so that each group had similar average baseline serum lipid levels. Five days after the initial blood sampling, administration of each test compound and the cholesterol-cholic acid-enriched diet was begun. Compounds to be tested by gavage were administered b.i.d. in 0.5% methyl cellulose at 9:00 a.m. and 3:00 p.m. for three days and at 9:00 a.m. on the fourth day. Compounds administered as part of the diet were dissolved in ethanol and sprayed on to the diet. The ethanol was allowed to evaporate and the diet given to the rats for three days. On the fourth day, blood samples were collected and the final serum lipid levels determined. All blood samplings were taken after a four-hour fast. […]
structure (smiles),measurement,setting,value
CCCCCCCN(Cc1ccc(OCC(OC)OC)cc1)C(=O)Nc1ccc(OC)cc1OC [Synthetic Example 1],IC50,ACAT,27 nM
same,reduction of LDL-cholesterol,[1]; dose of 25 mg/kg,78%
same,reduction of LDL-cholesterol,[1]; dose of 50 mg/kg,92%
